SMILES strings stand for the structures.

Among the data in patent US20170107207A1, “AMINOPYRAZOLONE DERIVATIVE” (DAIICHI SANKYO COMPANY, LIMITED, priority 2014, published 2017) are IC50 and GI50 values, retold here.

One test deals with T1, TIP48/TIP49 complex (Homo sapiens, UniProt Q9Y230+Q9Y265).
T1 construct: made in house; host or cells: E. coli
Description: ATPase assay of TIP48/TIP49 complex (ADP-Glo). The format is biochemical. Particulars: concentration at which the ATPase activity was inhibited by 50%. The text has this:
The ATPase activity of the TIP48/TIP49 complex can be measured by use of an ATPase assay described below in Test Examples 1 and 2. The ATPase activity of the TIP48/TIP49 complex can be measured, as described below in the Test Examples, for example, by using recombinant human TIP48 and TIP49 proteins (hereinafter, referred to as rTIP48 and rTIP49) and ATP in the presence or absence of a test compound and measuring the amount of ADP formed through hydrolysis by the ATPase activity of the TIP48/TIP49 complex, using ADP-Glo. Alternatively, the ATPase activity of the TIP48/TIP49 complex can be measured by a method described in, for example, J. Mol. Biol. 366, 172-179 (2007).
An ATPase assay of a TIP48/TIP49 complex was conducted using rTIP48 and rTIP49. Human TIP48 and TIP49 DNAs were purchased from Open Biosystems. Human TIP48 and TIP49 cDNAs cloned by PCR using the purchased DNAs were each integrated into plasmids for expression in E. coli and expressed in E. coli to obtain rTIP48 and rTIP49.
A test compound was dissolved at 10 mM using DMSO. The solution was diluted to 10 concentrations as 4-fold serial dilutions from 10 mM using DMSO.
A 2×assay buffer (100 mM Tris-HCl, pH 7.5, 100 mM NaCl, 40 mM MgCl2, 2 mM DTT, 20 μM ATP, and 0.2 mg/mL BSA) was dispensed at 24.5 μL/well to a 384-well assay plate.
Test compound solutions were dispensed thereto at 1 μL/well. Subsequently, the solution in each well was mixed using a plate mixer.
rTIP48 and rTIP49 were diluted to a concentration of 50 μg/mL using sterilized water. The diluted solution was dispensed at 24.5 μL/well to the 384-well assay plate. Subsequently, the solution in each well was mixed using a plate mixer (final concentration: 24.5 μg/mL) (concentration of each test compound solution: 200 μM, 50 μM, 12.5 μM, 3.12 μM, 0.78 μM, 0.20 μM, 0.049 μM, 0.012 μM, 0.003 μM, and 0.0007 μM; DMSO concentration: 2%).
After the mixing using the plate mixer, the assay plate was left standing at room temperature for 1.5 hours.
5 μL of the solution in each well was transferred to a white assay plate, and ADP-Glo Reagent from ADP-Glo Kinase Assay (Promega Corp., catalog No. V9101) was dispensed thereto at 5 μL/well. After completion of the reaction, the plate was left standing at room temperature for 40 minutes. Kinase Detection Reagent was further dispensed thereto at 5 μL/well, and the plate was left standing at room temperature for 30 minutes. Then, luminescence intensity was measured using a plate reader.
The ATPase inhibitory activity was calculated according to the expression given below.
The luminescence intensity of a well supplemented with the test compound and the TIP48/TIP49 complex was defined as A. The luminescence intensity of a well supplemented with only the TIP48/TIP49 complex was defined as B. The luminescence intensity of a well supplemented with neither the test compound nor the TIP48/TIP49 complex was defined as C. The ratio between the test compound-supplemented group and the test compound-nonsupplemented group (T/C value) was determined according to the following calculation expression:
The dose-response curve was calculated using GraphPad Prism 4 from the concentration of each of the serially diluted test compounds and the ATPase inhibitory activity (%) at this concentration.
On the technique in general: In ADP-Glo the light output rises with the ADP produced.

The test system of test [1] is human lymphoma cell line RAMOS cells. Put plainly: Cell growth inhibition test using RAMOS cell, ATP assay (CellTiter-Glo). It counts as cell-based. Particulars: Homo sapiens, 72 h, cultured 3 days, 50% growth inhibition concentration. The procedure: A cell growth inhibition test was carried out by treating human lymphoma cell line RAMOS cells with a test compound for a given period and then counting the number of viable cells by MTT assay or CellTiter-Glo Luminescent Cell Viability Assay (manufactured by Promega Corp.; hereinafter, referred to as ATP assay).
RAMOS cells were inoculated at 4000 cells/40 μL/well to a 384-well plate containing the compound prepared in advance at predetermined concentrations. The cells thus inoculated were cultured at 37° C. for 3 days under 5% CO2. In order to measure a cell survival rate, CellTiter-Glo Reagent was added in an amount corresponding to 1/4 of the amount of the culture solution at the day of cell inoculation and at the final culture date and stirred at room temperature for 2 minutes. Then, luminescence intensity was measured using a plate reader. The cell survival rate was calculated according to the expression given below.
The number of viable cells and luminescence intensity have been confirmed to correlate with each other. Therefore, the rate of cell growth was calculated according to the following expression: Rate of cell growth (T/C %) of a test compound-supplemented well=100×[(B−C)/(A−C)] wherein A represents the luminescence intensity (final culture date) of a test compound-free well; B represents the luminescence intensity (final culture date) of a test compound-containing well; and C represents the luminescence intensity (day of cell inoculation) of a well at the start of contact of the cells with the test compound.
T/C % at each concentration of the test compound was determined. The concentration at which the test compound offered 50% growth rate was calculated as a GI50 value from the growth rates at two points interpolating 50% and the concentrations, and is shown in Table 56.

T1 sequence (Q9Y230 whole entry): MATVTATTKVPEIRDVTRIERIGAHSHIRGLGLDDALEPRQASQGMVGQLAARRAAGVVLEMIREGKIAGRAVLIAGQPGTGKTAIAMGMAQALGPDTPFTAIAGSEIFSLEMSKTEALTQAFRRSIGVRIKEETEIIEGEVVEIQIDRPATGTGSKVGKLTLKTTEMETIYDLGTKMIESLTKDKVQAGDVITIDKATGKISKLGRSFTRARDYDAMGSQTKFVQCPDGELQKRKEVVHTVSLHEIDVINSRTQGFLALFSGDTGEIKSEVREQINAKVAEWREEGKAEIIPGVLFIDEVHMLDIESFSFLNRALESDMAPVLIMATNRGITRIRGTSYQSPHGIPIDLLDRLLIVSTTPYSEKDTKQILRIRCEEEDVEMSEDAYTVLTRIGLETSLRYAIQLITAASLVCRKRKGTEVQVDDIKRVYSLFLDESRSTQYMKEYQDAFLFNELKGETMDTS
T1 sequence (Q9Y265 whole entry): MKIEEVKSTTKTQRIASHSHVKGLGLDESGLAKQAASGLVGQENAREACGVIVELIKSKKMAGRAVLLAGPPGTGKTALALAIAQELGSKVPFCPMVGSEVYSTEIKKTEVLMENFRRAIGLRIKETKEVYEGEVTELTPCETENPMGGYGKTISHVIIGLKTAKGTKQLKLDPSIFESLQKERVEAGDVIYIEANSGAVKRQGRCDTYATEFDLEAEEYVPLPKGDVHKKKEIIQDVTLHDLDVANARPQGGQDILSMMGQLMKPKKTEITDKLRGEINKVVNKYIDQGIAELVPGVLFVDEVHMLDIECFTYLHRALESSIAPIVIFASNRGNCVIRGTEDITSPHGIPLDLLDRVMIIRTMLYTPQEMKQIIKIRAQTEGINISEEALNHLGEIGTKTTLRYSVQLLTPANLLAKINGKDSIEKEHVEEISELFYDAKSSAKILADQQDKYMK

The term IC50 denotes the concentration that inhibits the measured activity by half. The term GI50 denotes the concentration giving 50% growth inhibition. On to `CCOc1cc(F)c(Cl)cc1C(=O)NCC(C)(C)CC(=O)Nc1c(CCCCN(C)C)n(C)n(-c2ccccc2)c1=O` [Example 89, 5-Chloro-N-[4-({5-[4-(dimethylamino)butyl]-1-methyl-3-oxo-2-phenyl-2,3-dihydro-1H-pyrazol-4-yl}amino)-2,2-dimethyl-4-oxobutyl]-2-ethoxy-4-fluorobenzamide], for which, at TIP48/TIP49 complex, the 50% inhibitory concentration (IC50) came out at 90 nM. The compound also displayed a GI50 in test [1] (Ramos) of 170 nM.

On to `CCOc1cc(F)c(Cl)cc1C(=O)NCC(C)(C)C(C)C(=O)Nc1c(COC)n(C)n(-c2ccccc2)c1=O` (stereo not shown) [Example 159, 5-Chloro-2-ethoxy-4-fluoro-N-(4-{[5-(methoxymethyl)-1-methyl-3-oxo-2-phenyl-2,3-dihydro-1H-pyrazol-4-yl]amino}-2,2,3-trimethyl-4-oxobutyl)benzamide], for which it took 77 nM to reach half-maximal inhibition against TIP48/TIP49 complex (IC50). In test [1], this compound yielded a GI50 of 840 nM.

In the case of `CCOc1cc(F)c(Cl)cc1C(=O)NCC(C)(C)CC(=O)Nc1c(C[C@@H](C)N(C)C)n(C)n(-c2ccccc2)c1=O` [Example 49, 5-Chloro-N-[4-({5-[(2R)-2-(dimethylamino)propyl]-1-methyl-3-oxo-2-phenyl-2,3-dihydro-1H-pyrazol-4-yl}amino)-2,2-dimethyl-4-oxobutyl]-2-ethoxy-4-fluorobenzamide], the IC50 against TIP48/TIP49 complex was 69 nM. The compound further came in with a GI50 in test [1] (Ramos) of 160 nM.

Take `CCOc1ccc(Cl)cc1C(=O)NCC(C)(C)CC(=O)Nc1c(C(C)C(C)(C)N(C)C)n(C)n(-c2ccccc2)c1=O` (stereo not shown) [Example 87, 5-Chloro-N-[4-({5-[2-(dimethylamino)-1,2-dimethylpropyl]-1-methyl-3-oxo-2-phenyl-2,3-dihydro-1H-pyrazol-4-yl}amino)-2,2-dimethyl-4-oxobutyl]-2-ethoxybenzamide]: the IC50 at TIP48/TIP49 complex came out at 52 nM. In addition, the GI50 in test [1] (Ramos) is 120 nM.

Regarding `[2H]C([2H])([2H])n1c(CCN(C)C)c(NC(=O)CC(C)(C)CNC(=O)c2cc(Br)cnc2OCC)c(=O)n1-c1ccccc1` [Example 44, 5-Bromo-N-[4-({3-[2-(dimethylamino)ethyl]-5-oxo-1-phenyl-2-(trideuteriomethyl)-2,3-dihydro-1H-pyrazol-4-yl}amino)-2,2-dimethyl-4-oxobutyl]-2-ethoxypyridine-3-carboxamide], the IC50 at TIP48/TIP49 complex came to 150 nM. Further, growth in test [1] (Ramos) was halved (GI50) at 470 nM.

With `CCOc1ncc(Cl)cc1C(=O)NCC(C)(C)CC(=O)Nc1c([C@@H](C)CN(C)C)n(C)n(-c2ccccc2)c1=O` [Example 72, 5-Chloro-N-[4-({5-[(1S)-2-(dimethylamino)-1-methylethyl]-1-methyl-3-oxo-2-phenyl-2,3-dihydro-1H-pyrazol-4-yl}amino)-2,2-dimethyl-4-oxobutyl]-2-ethoxypyridine-3-carboxamide], the IC50 against TIP48/TIP49 complex came to 80 nM. Moreover, halving of growth in test [1] (Ramos) (GI50) required 510 nM.

Turning to `CCOc1cc(F)c(Cl)cc1C(=O)NCC(C)(C)CC(=O)Nc1c(CCNCC(F)(F)F)n(C)n(-c2ccccc2)c1=O` [Example 27, 5-Chloro-N-[2,2-dimethyl-4-({1-methyl-3-oxo-2-phenyl-5-[2-(2,2,2-trifluoroethylamino)ethyl]-2,3-dihydro-1H-pyrazol-4-yl}amino)-4-oxobutyl]-2-ethoxy-4-fluorobenzamide], half-maximal inhibition against TIP48/TIP49 complex (IC50) required 48 nM. This compound also returned a GI50 in test [1] (Ramos) of 130 nM.

Turning to `CCOc1ccc(Cl)cc1C(=O)NCC(C)(C)CC(=O)Nc1c(CCN(C)CCF)n(C)n(-c2ccccc2)c1=O` [Example 36, 5-Chloro-2-ethoxy-N-{4-[(5-{2-[2-fluoroethyl(methyl)amino]ethyl}-1-methyl-3-oxo-2-phenyl-2,3-dihydro-1H-pyrazol-4-yl)amino]-2,2-dimethyl-4-oxobutyl}benzamide], at TIP48/TIP49 complex, the IC50 was determined as 24 nM. Also, in test [1] (Ramos), the GI50 came to 120 nM.

At TIP48/TIP49 complex, `CCOc1ccc(Cl)cc1C(=O)NCC(C)(C)CC(=O)Nc1c(CC(N)=O)n(C)n(-c2ccccc2)c1=O` [Example 132, N-(4-{[5-(2-Amino-2-oxoethyl)-1-methyl-3-oxo-2-phenyl-2,3-dihydro-1H-pyrazol-4-yl]amino}-2,2-dimethyl-4-oxobutyl)-5-chloro-2-ethoxybenzamide] yielded an IC50 of 100 nM. Also, in test [1] (Ramos), the GI50 came out at 120 nM.

Consider `CCOc1cc(F)c(Cl)cc1C(=O)NCC(C)(C)CC(=O)Nc1c(C(C)CN(C)C)n(C)n(-c2ccccc2)c1=O` (stereo not shown) [Example 69, 5-Chloro-N-[4-({5-[2-(dimethylamino)-1-methylethyl]-1-methyl-3-oxo-2-phenyl-2,3-dihydro-1H-pyrazol-4-yl}amino)-2,2-dimethyl-4-oxobutyl]-2-ethoxy-4-fluorobenzamide], for which, on TIP48/TIP49 complex, the half-inhibitory concentration (IC50) worked out at 65 nM. Moreover, the GI50 in test [1] (Ramos) stood at 160 nM.

`CCOc1cc(F)c(Cl)cc1C(=O)NCC(C)(C)CC(=O)Nc1c(C[C@H](C)N(C)C)n(C)n(-c2ccccc2)c1=O` [Example 52, 5-Chloro-N-[4-({5-[(2S)-2-(dimethylamino)propyl]-1-methyl-3-oxo-2-phenyl-2,3-dihydro-1H-pyrazol-4-yl}amino)-2,2-dimethyl-4-oxobutyl]-2-ethoxy-4-fluorobenzamide] returned a half-maximal inhibitory concentration (IC50) at TIP48/TIP49 complex of 36 nM. Further, halving of growth in test [1] (Ramos) (GI50) required 120 nM.

For `CCOc1cc(F)c(Cl)cc1C(=O)NCC(C)(C)CC(=O)Nc1c(CCN(C)CCF)n(C)n(-c2ccccc2)c1=O` [Example 37, 5-Chloro-2-ethoxy-4-fluoro-N-{4-[(5-{2-[2-fluoroethyl(methyl)amino]ethyl}-1-methyl-3-oxo-2-phenyl-2,3-dihydro-1H-pyrazol-4-yl)amino]-2,2-dimethyl-4-oxobutyl}benzamide], the IC50 against TIP48/TIP49 complex turned out to be 38 nM. Also, halving of growth in test [1] (Ramos) (GI50) required 120 nM.

Regarding `Cc1cc2cc(Cl)cc(C(=O)NCC(C)(C)CC(=O)Nc3c(C[C@H](C)N(C)C)n(C)n(-c4ccccc4)c3=O)c2o1` [Example 54, 5-Chloro-N-[4-({5-[(2S)-2-(dimethylamino)propyl]-1-methyl-3-oxo-2-phenyl-2,3-dihydro-1H-pyrazol-4-yl}amino)-2,2-dimethyl-4-oxobutyl]-2-methylbenzofuran-7-carboxamide], the IC50 at TIP48/TIP49 complex is 94 nM. The concentration for 50% growth inhibition (GI50) in test [1] (Ramos) was determined as 140 nM.

Turning to `CCOc1cc(F)c(Cl)cc1C(=O)NCC(C)(C)CC(=O)Nc1c(CCN(C)CC(F)(F)F)n(C)n(-c2ccccc2)c1=O` [Example 38, 5-Chloro-N-{2,2-dimethyl-4-[(1-methyl-5-{2-[methyl(2,2,2-trifluoroethyl)amino]ethyl}-3-oxo-2-phenyl-2,3-dihydro-1H-pyrazol-4-yl)amino]-4-oxobutyl}-2-ethoxy-4-fluorobenzamide], the IC50 against TIP48/TIP49 complex came out at 77 nM. The compound also yielded a GI50 in test [1] (Ramos) of 210 nM.
